In brackets after ≈: the same amount, converted by molar mass.
Columns and labels:
[1] = system: Acinetobacter calcoaceticus Ac 54; test: MIC, Experiment 1; assay type: cell-based; conditions: AC54, A. calcoaceticus Ac 54, Gram -, read-out: Min. inhib. concentr. (MIC)
Outline: (§1)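 Minimum inhibitory concentrations come from the Japan Society of Chemotherapy procedure. For streptococci, plates were heart infusion agar with 5% defibrinated horse blood after brain heart infusion broth preculture. Non-streptococcal strains were grown in sensitivity test broth and plated on sensitivity test agar.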

[2] = system: Klebsiella pneumoniae PCI-602; test: MIC, Experiment 1; assay type: cell-based; conditions: PCI602, K. pneumoniae PCI-602, Gram -, read-out: Min. inhib. concentr. (MIC)
Outline: as §1

[3] = system: Micrococcus luteus ATCC 9341; test: MIC, Experiment 1; assay type: cell-based; conditions: ATCC9341, M. luteus ATCC 9341, Gram +, read-out: Min. inhib. concentr. (MIC)
Outline: as §1

[4] = system: Staphylococcus aureus ATCC 9144; test: MIC, Experiment 1; assay type: cell-based; conditions: ATCC9144, S. aureus ATCC 9144, Gram +, read-out: Min. inhib. concentr. (MIC)
Outline: (§2)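 MIC was determined by the Japan Society of Chemotherapy standard method. For S. pneumoniae, preculture was in brain heart infusion broth and MIC was read on heart infusion agar with 5% defibrinated horse blood. Other strains were precultured in sensitivity test broth and tested on sensitivity test agar.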

[5] = system: Staphylococcus aureus FDA 209P JC-1; test: MIC, Experiment 1; assay type: cell-based; conditions: FDA209P, S. aureus FDA 209P JC-1, Gram +, read-out: Min. inhib. concentr. (MIC)
Outline: as §2

[6] = system: Staphylococcus aureus FDA 243; test: MIC, Experiment 1; assay type: cell-based; conditions: FDA243, S. aureus FDA 243, Gram +, read-out: Min. inhib. concentr. (MIC)
Outline: as §2

[7] = system: Streptococcus pneumoniae IID 554; test: MIC, Experiment 1; assay type: cell-based; conditions: IID554, S. pneumoniae IID 554, Gram +, agar with 5% defibrinated horse blood, read-out: Min. inhib. concentr. (MIC)
Outline: as §2

[8] = system: Staphylococcus aureus IID 803; test: Effect on treatment of general infectious disease (systemic infection in mice), Experiment 4; assay type: in vivo, Staphylococcus aureus; ddY male mice
Description: (§3) Staphylococcus aureus IID 803
(§4) The test microorganism was subjected to standing culture in Brain heart infusion broth (manufactured by DIFCO) at 37° C. for 16 to 18 hours. The culture was then diluted with PBS (Dulbecco's phosphate buffered saline) to adjust the concentration of bacteria to 3×10^7 CFU/ml. The mixture was mixed with an equivalent amount of 10% (w/v) Mucin (BACTO MUCIN BACTERIOLOGICAL, manufactured by Difco Co.) to prepare a bacterial suspension. The thus prepared bacterial suspension (0.5 ml each) was intraperitoneally inoculated to ddY male mice (5 weeks age, weighing 22-29 g, 10 mice in each group), to infect the animals, by which systemic infectious model was prepared. One hour after the infection, a suspension of the test compound in 1% (w/v) aqueous gum arabic was orally adiministered to mice.
The mice were daily observed for one week, and from the survival number of mice after one week, the 50% effective dose (ED50) was calculated by Weil method.

[9] = Acute toxicity, Experiment 6; assay type: in vivo, F344/DuCrj male and female rats; conditions: oral, 1000 and 2000 mg/kg, one week
Description: 9,1-(Methylimino)methano-7-fluoro-8-(2-methoxymethylmorpholino)-5-oxo-5H-thiazolo[3,2-a]quinoline-4-carboxylic acid (compound of Example 20) [the compound (E) of the present invention] was suspended in 1% aqueous gum arabic to prepare a suspension in concentration of 100 mg/ml. The suspension was orally administered to F344/DuCrj male and female rats (5 weeks age, weighing 110 to 115 g in male, 91 to 95 g in female, 3 rats in each group), which had been fasted for 5 hours, at a rate of 1000 and 2000 mg/kg body weight of the test compound (E).

bone marrow = test: Micronucleus test, Experiment 8; assay type: in vivo, ICR male mice; conditions: oral 300, 1000, 3000 mg/kg, mouse bone marrow, 24 or 48 hours
Description: The compound (B) or (E) of the present invention was suspended in 1% aqueous gum arabic. The suspension was orally administered to ICR male mice (7-8 weeks age, weighing 30 to 39 g, 5 mice in each group) at a rate of 3000, 1000 or 300 mg/kg body weight of the test compound (B) or (E). After 24 hours or 48 hours, these mice were killed and the bone marrow was collected and observed the presence of micronuclei.

[10] = system: Staphylococcus aureus IID 803; test: Effect on treatment of general infectious disease (systemic infection in mice), Experiment 3; assay type: in vivo, Staphylococcus aureus; ddY male mice; conditions: for protective effects against infection: Experiment 3, in words; for ED50: Staphylococcus aureus, IID803, 168 h, oral, 1 h after i.p. infection, mice, survival after one week, average of several tests, read-out: 50% effective dose (ED50)
Description: as §3
as §4, with “to 4×10^7 -8×10^7” for “to 3×10^7”, “weighing 24-27” for “weighing 22-29”, “g, 5” for “g, 10”, “prepared.” for “prepared. One hour after the infection, a suspension of the test compound in 1% (w/v) aqueous gum arabic was orally adiministered to mice.”
The mice were daily observed for one week, and from the survival number of mice after one week, the 50% effective dose (ED50) was calculated by Weil method. This test was repeated several times and the average of ED50 was calculated.

[11] = Acute toxicity, Experiment 5; assay type: in vivo; conditions: oral, 2000 mg/kg, one week
Description: The compound (A) or (B) of the present invention was suspended in distilled water to prepare a suspension in concentration of 200 mg/ml and the compound (C) was suspended in distilled water to prepare a suspension in concentration of 100 mg/ml. The suspension was orally administered to ddY male mice (5 weeks age, weighing 19 to 24 g, 5 mice in each group), which had been fasted for 18 hours, at a rate of 2000 mg/kg body weight of the test compound.

SMILES | MIC [1] [mg/L] | MIC [2] [mg/L] | MIC [3] [mg/L] | MIC [4] [mg/L] | MIC [5] [mg/L] | MIC [6] [mg/L] | MIC [7] [mg/L] | protective effects against infection ([8]; Experiment 4, in words) | ED50 ([8]; Staphylococcus aureus, IID803, 168 h, oral, 1 h after i.p. infection, mice, survival after one week, 3×10^7 CFU/ml, read-out: 50% effective dose (ED50)) [mg/kg] | death of rats [9] | micronucleus inducing activity (bone marrow) | protective effects against infection [10] | ED50 [10] [mg/kg] | death of mice [11]
COCC1CN(c2c(F)cc3c(=O)c(C(=O)O)c4scc5n4c3c2N(C)C5)CCO1 (centres unmarked) [Compound (E), 9,1-(Methylimino)methano-7-fluoro-8-(2-methoxymethylmorpholino)-5-oxo-5H-thiazolo[3,2-a]quinoline-4-carboxylic acid] | 0.013 (≈ 0.03 µM) | 0.025 (≈ 0.0577 µM) | 0.1 (≈ 0.231 µM) | 0.013 (≈ 0.03 µM) | 0.025 (≈ 0.0577 µM) | ≤ 0.006 | 0.05 (≈ 0.115 µM) | excellent protective effects against infection | 1.7 | no death of rats was observed | no nucleus inducing activity |  |  | 
CN1Cc2csc3c(C(=O)O)c(=O)c4cc(F)c(N5CCOC(CO)C5)c1c4n23 (centres unmarked) [Compound (B), 9,1-(Methylimino)methano-7-fluoro-8-(2-hydroxymethylmorpholino)-5-oxo-5H-thiazolo[3,2-a]quinoline-4-carboxylic acid] | ≤ 0.006 | ≤ 0.006 | 0.1 (≈ 0.238 µM) | ≤ 0.006 | 0.013 (≈ 0.031 µM) | ≤ 0.006 | 0.05 (≈ 0.119 µM) |  |  |  | no nucleus inducing activity | excellent protective effects against infection | 5.1 | no death of mice was observed
CN1Cc2csc3c(C(=O)O)c(=O)c4cc(F)c(N5CCOC(CF)C5)c1c4n23 (centres unmarked) [Compound (C), 9,1-(Methylimino)methano-7-fluoro-8-(2-fluoromethylmorpholino)-5-oxo-5H-thiazolo[3,2-a]quinoline-4-carboxylic acid] | ≤ 0.006 | ≤ 0.006 | 0.1 (≈ 0.237 µM) | 0.013 (≈ 0.0308 µM) | 0.013 (≈ 0.0308 µM) | ≤ 0.006 | 0.05 (≈ 0.119 µM) |  |  |  |  | excellent protective effects against infection | 1.9 | no death of mice was observed

— patent publication US5191079A, “Quinolinecarboxylic acid derivatives” (priority 1990, dated 1993)
